Assay results from patent US20240166629A1, “HETEROCYCLIC COMPOUNDS CAPABLE OF ACTIVATING STING” (Boehringer Ingelheim International GmbH, priority 2022, published 2024).

Tests used:
human STING variant AQ = biological target: T1, human STING variant AQ (Homo sapiens, UniProt Q86WV6, G230A/H232R/R293Q); test: THP1-Blue ISG IRF-inducible SEAP reporter assay, STING AQ-variant; assay type: cell-based; conditions: THP1-Blue ISG hSTING KO cells expressing STING AQ; 24 hours incubation
T1 construct: expressed in transfected cells; host or cells: THP1-Blue ISG hSTING KO clone, retroviral MSCV-ires-GFP-Blasti
T1 sequence (Q86WV6 whole entry G230A/H232R/R293Q): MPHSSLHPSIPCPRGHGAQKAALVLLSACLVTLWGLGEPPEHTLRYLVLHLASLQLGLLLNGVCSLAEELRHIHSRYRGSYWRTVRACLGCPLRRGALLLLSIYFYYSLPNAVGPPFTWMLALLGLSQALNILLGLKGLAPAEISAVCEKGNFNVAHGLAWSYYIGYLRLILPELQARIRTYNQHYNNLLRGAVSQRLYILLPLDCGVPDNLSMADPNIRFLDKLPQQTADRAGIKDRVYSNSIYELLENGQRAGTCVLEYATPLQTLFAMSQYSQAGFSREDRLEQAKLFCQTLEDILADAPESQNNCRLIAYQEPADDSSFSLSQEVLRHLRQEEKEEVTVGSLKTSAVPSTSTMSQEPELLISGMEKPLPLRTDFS
Excerpt: (§1) Activation of the STING protein expressed in cell lines results in an increase of interferon production. By the stable integration of an interferon regulatory factor (IRF)-inducible SEAP gene (secreted embryonic alkaline phosphatase) reporter construct the functional interferon signaling pathway can be monitored. Using Invivogen's THP1-Blue™ ISG colorimetric enzyme assay and a suitable optical density (OD) reader the activity of SEAP can be detected and quantified. This technique could be used to characterize pharmacological modification of the STING pathway.
(§2) Several single nucleotide polymorphisms have been identified in the human STING gene. To determine the activity of the above described compounds, THP1-Blue™ ISG reporter cell lines expressing the different human STING variants have been generated. To do so, the endogenous human STING was first deleted using the CRISPR/CAS9 system: THP1-Blue ISG cells were electroporated with ALL-IN-ONE CRISPR plasmids targeting the STING gene (purchased from Sigma encoding the gRNA and GFP as a reporter gene for successful transduction). GFP positive cells then were sorted 24 h post transfection and expanded. Cells were then dispersed in semisolid methocel medium to allow single cell clone isolations. Clones were then screened for cGAMP responsiveness using the Quanti-Blue™ reporter assay. Non-responsive clones were subsequently analysed for STING loss by western blotting and sequencing of the STING locus.
(§3) For the overexpression of the human STING variants, a confirmed THP1-Blue™ ISG hSTING KO clone was transduced with individual retroviral plasmids (MSCV-ires-GFP-Blasti) encoding the allelic variants of hSTING (WT (H232R), HAQ, R232H, AQ and R293Q). Transduced cells were sorted for different levels of GFP fluorescence and STING allele expression was analysed by western blot.
(§4) Measurements of SEAP activity were performed in THP1-Blue™ ISG cells stably expressing the different human STING isoforms and the IRF-inducible SEAP reporter construct. Cells were cultivated in RPMI1640 medium with 10% fetal calf serum, 50 μg/ml Penicillin-Streptomycin, 100 μg/ml Zeocin, and 100 μg/ml Normocin in a 37°, 95% humidity and 5% CO2 incubator.
(§5) In preparation for the assay, the cells were distributed into the assay plates with a density of 10000 cells/15 μL per well. Compounds were prepared by an 8 point serial dilution in 50% aqueous DMSO and a final dilution step into medium to ensure a final DMSO concentration of 0.5% in the assay. 5 μL of diluted compounds were added to the plates, followed by a 24 hours incubation at 37° C.
(§6) At the day of the assay, 75 μl per well of Quanti-Blue™ reagent was added to all wells of the plate and the plate was incubated another 30 minutes at 37° C. The OD at 620 nm was measured on the EnVision reader (PerkinElmer).

[1] = test system: Human STING (hSTING, UNIPROT entry Q86WV6, residues 155-341); test: Interaction with hSTING by differential scanning fluorimetry (DSF); assay type: binding; conditions: 100 μM test compound, 5 μM hSTING protein
Experimental: In DSF, the temperature at which a protein unfolds, also called the melting temperature Tm, is measured by changes in fluorescence of a dye that binds to the hydrophobic parts of the protein. Tm shifts upon binding of a small molecule are correlated with the binding affinity of this small molecule. As target protein, Human STING (hSTING, UNIPROT entry Q86WV6, residues 155-341, MW: 21578.4 Da; protein stock solution: c=1302 μM stock solution in 20 mM Tris, 100 mM NaCl, 2 mM TCEP pH 8.8) was used, as assay buffer 20 mM Tris, 150 mM NaCl pH7.5 was added where and as necessary.
Final concentrations of components in assay: 100 μM test compounds, 5 μM target protein, “5×” SYPR Orange (from stock solution SYPRO orange solution in DMSO (invitrogen cat.-no. 56650-500ul), concentration “5000×”)
Assay Procedure: • 1) Dilutions of compound stock solutions (10 mM in DMSO) were prepared in assay buffer (20 mM Tris, 150 mM NaCl; pH7.5) • 2) 5 μl fluorescent dye stock solution (5000×SYPRO Orange in DMSO) was mixed with 19 μl target protein (1302 μM) and 976 μl assay buffer. • 3) 2 μl of this protein-dye-mixture (25×SYPRO Orange and 25 μM Protein) was added to 8 μl diluted compound solution as prepared in step 1. Final volume was 10 μl. • 4) With every 20 compounds, two negative controls were measured. • 5) The plates were prepared for duplicate measurement and centrifuged for 2 min at 1000 g. • 6) For the measurement, a CFX384 Real-Time System (Bio-Rad) was used. The run consisted of 140 cycles with 0.5° C./cycle (temperature ramp 15 s/cycle, 25° C. to 95° C.).
Data analysis: The melting curves were processed in Bio-Rad CFX Manager. Peak type was set to “negative”. Two replicates of TM (melting temperature) measurements were averaged and the standard deviation was calculated.

[2] = biological target: T2, human STING variant H232R (WT) (Homo sapiens, UniProt Q86WV6, H232R); test: THP1-Blue ISG IRF-inducible SEAP reporter assay, STING H232R-variant; assay type: cell-based; conditions: THP1-Blue ISG hSTING KO cells expressing STING H232R; 24 hours incubation
T2 construct: expressed in transfected cells; host or cells: THP1-Blue ISG hSTING KO clone, retroviral MSCV-ires-GFP-Blasti
T2 sequence (Q86WV6 whole entry H232R): as the sequence (Q86WV6 whole entry G230A/H232R/R293Q) above, with A230G, Q293R counted along it
Excerpt: as §1, §2, §3, §4, §5, §6

[3] = biological target: T3, human STING variant R232H (Homo sapiens, UniProt Q86WV6); test: THP1-Blue ISG IRF-inducible SEAP reporter assay, STING R232H-variant; assay type: cell-based; conditions: THP1-Blue ISG hSTING KO cells expressing STING R232H; 24 hours incubation
T3 construct: expressed in transfected cells; host or cells: THP1-Blue ISG hSTING KO clone, retroviral MSCV-ires-GFP-Blasti
T3 sequence (Q86WV6 whole entry, stated change not applied): as the sequence (Q86WV6 whole entry G230A/H232R/R293Q) above, with A230G, R232H, Q293R counted along it
Excerpt: as §1, §2, §3, §4, §5, §6

human STING variant HAQ = biological target: T4, human STING variant HAQ (Homo sapiens, UniProt Q86WV6, G230A/H232R/R293Q/R71H); test: THP1-Blue ISG IRF-inducible SEAP reporter assay, STING HAQ-variant; assay type: cell-based; conditions: THP1-Blue ISG cells expressing STING HAQ (parental or re-introduced); 24 hours incubation; SEAP OD 620 nm
T4 construct: expressed in transfected cells; host or cells: THP1-Blue ISG: either parental cells (endogenous HAQ) or hSTING KO clone retrovirally transduced with HAQ
T4 sequence (Q86WV6 whole entry R71H/G230A/H232R/R293Q): as the sequence (Q86WV6 whole entry G230A/H232R/R293Q) above, with R71H counted along it
Excerpt: as §1, §2, §3, §4, §5, §6
Data of EC50 values on STING HAQ-variant can be found in table 2a. Shown data below were either derived from the parental THP1-Blue™ ISG cell lines (which express endogenously HAQ) or from genetically engineered THP1-Blue™ ISG cell lines in which first STING has been knocked-out and the HAQ specific STING isoform has been re-introduced as described above.

[4] = biological target: T5, human STING variant R293Q (Homo sapiens, UniProt Q86WV6, H232R/R293Q); test: THP1-Blue ISG IRF-inducible SEAP reporter assay, STING R293Q-variant; assay type: cell-based; conditions: THP1-Blue ISG hSTING KO cells expressing STING R293Q; 24 hours incubation
T5 construct: expressed in transfected cells; host or cells: THP1-Blue ISG hSTING KO clone, retroviral MSCV-ires-GFP-Blasti
T5 sequence (Q86WV6 whole entry H232R/R293Q): as the sequence (Q86WV6 whole entry G230A/H232R/R293Q) above, with A230G counted along it
Excerpt: as §1, §2, §3, §4, §5, §6

in vitro = conditions: human, Caco-2, pH 7.4
Experimental: Caco-2 cells were obtained from Leibniz Institute DSMZ-German Collection of Microorganisms and Cell Cultures (Braunschweig, Germany) and cultured in DMEM (Dulbecco's modified Eagle medium) containing (in final concentrations) 10% FCS (fetal calf serum), 1% NEAA (non-essential amino acids), 2 mM Glutamin, 100 U/mL Penicillin and 100 μg/mL Streptomycin. Caco-2 cells were seeded either onto 24-well Transwell inserts (Corning, #3379) for bidirectional permeability assays at a density of 160,000 cells/cm^2 and cultured for 3 weeks, with media change on every second day.
For bidirectional permeability assays 10 mM DMSO stock solutions were diluted in transport buffer (final concentrations: 128.13 mM NaCl, 5.36 mM KCl, 1 mM MgSO4, 1.8 mM CaCl2, 4.17 mM NaHCO3, 1.19 mM Na2HPO4, 0.41 mM NaH2PO4, 15 mM 2-[4-(2-hydroxyethyl)piperazin-1-yl]ethanesulfonic acid (HEPES), 20 mM glucose, pH 7.4) containing 0.25% bovine serum albumin to a final concentration of 10 μM of the test compounds and added to the apical or basal compartment. Cells were incubated with the compounds for up to 2 h. Samples from the opposite compartment were taken at different timepoints.
Compound concentrations in the compartments were quantified using a RapidFire-based high-throughput HPLC/MS/MS system (high performance liquid chromatography/mass spectrometry; BioCius) that was customized to a fully automated and flexible platform, termed RIAS. In this modified setup, the sample was aspirated by a vacuum pump into a 10 μL sample loop for 250 ms and flushed onto a C4 cartridge (3.8 μL bed volume; BioCius) with the aqueous mobile phase (99.9% water, 0.09% formic acid, and 0.01% TFA; flow rate 1.5 mL/min). Prior to bioanalysis samples were spiked with internal standard solution and diluted with acetonitrile (ACN) for protein precipitation. Measurement was operated in multiplereaction monitoring (MRM) mode. Quantification was performed using external calibration. A solid-phase extraction step retained the analyte for 3000 ms while interfering matrix (e.g., buffer components) was removed. With a simple step gradient, the analyte was back-eluted from the cartridge for 3,000 ms with the organic mobile phase (99.9% acetonitrile/methanol [1:1, v:v], 0.09% formic acid, and 0.01% TFA) and flushed into the mass spectrometer at a flow rate of 1.25 mL/min. Afterwards, the cartridge was reequilibrated with the aqueous mobile phase for 500 ms (flow rate 1.5 mL/min). The RapidFire software and a customized control software were obtained from BioCius. QuickQuan 2.3, Xcalibur 2.0.7, and XDK 2.1.0.25 were used to operate the TSQ Vantage mass spectrometer (ThermoFisher, San Jose, CA) integrated to the RapidFire system. Mass spectral data-processing software QuickCalc 7.1.9 was purchased from ThermoFisher. The Master software for the RIAS was programmed in-house using LabVIEW (version 8.6.1; National Instruments, Austin, TX). Data analysis was performed in AssayExplorer 3.2 (Symyx, Sunnyvale, CA), and correlation plots were visualized in Spotfire version 2.2.0 (TIBCO, Palo Alto, CA).
Apparent permeability coefficients in the apical to basal direction (Papp,AB) and in the basal to apical direction (Papp,BA) and efflux ratios were calculated as follows:
Efflux ratio=Papp,BA/Papp,AB
where Q is the amount of compound recovered in the receiver compartment after the incubation time t, C0 the initial compound concentration given to the donor compartment, and s the surface area of the Transwell inserts. […] In addition, transepithelial electrical resistance (TEER) values are measured for each plate before the permeability assay, and total recovery in donor and receiver compartments was determined for each compound.

| Compound | EC50 (human STING variant AQ) [nM] | EC50 [2] [nM] | EC50 [3] [nM] | EC50 (human STING variant HAQ) [nM] | EC50 [4] [nM] | Papp A→B at 10 μM (in vitro) [×10⁻⁶ cm/s] | efflux ratio at 10 μM (in vitro) | TM (changes in TM, thermal shift) [1] [K] |
| --- | --- | --- | --- | --- | --- | --- | --- | --- |
| Cc1cc(F)cc2c(-c3cccc4nn(C)cc34)nn(-c3ccc(N4CCS(=O)(=O)CC4)nc3)c12 [Example #1, 4-(5-(5-fluoro-2′,7-dimethyl-1H,2′H-[3,4′-biindazol]-1-yl)pyridin-2-yl)thiomorpholine 1,1-dioxide] | 1800 | 800 | 700 | 2300 | 2200 |  |  | 21 |
| Cc1cc(F)cc2c(-c3cccc4nn(C)cc34)nn(-c3ccc(N4CCN(C=O)CC4)nc3)c12 [Example #3, 4-(5-(5-Fluoro-2′,7-dimethyl-1H,2′H-[3,4′-biindazol]-1-yl)pyridin-2-yl)piperazine-1-carbaldehyde] | 1000 | 600 | 600 | 1900 | 1800 | 15 | 1.7 | 21 |
| Cc1c(Cl)ccc2c(-c3cccc4nn(C)cc34)nn(-c3ccc(N4CCC(S(C)(=O)=O)CC4)nc3)c12 [compound 2, 6-chloro-2′,7-dimethyl-1-(6-(4-(methylsulfonyl)piperidin-1-yl)pyridin-3-yl)-1H,2′H-3,4′-biindazole] | 600 | 300 | 300 | 900 | 700 |  |  | 22 |
| Cc1cc(F)cc2c(-c3cccc4nn(C)cc34)nn(-c3ccc(N4CCC(C(=O)O)CC4)nc3)c12 [compound 4, 1-(5-(5-Fluoro-2′,7-dimethyl-1H,2′H-[3,4′-biindazol]-1-yl)pyridin-2-yl)piperidine-4-carboxylic acid] | 300 | 300 | 300 | 700 | 500 | 19 | 1 | 24 |
| Cc1cc(F)cc2c(-c3cccc4nn(C)cc34)nn(-c3ccc(N4C[C@@H]5[C@H](C4)[C@H]5C(=O)O)nc3)c12 [compound 5, (1R,5S,6r)-3-(5-(5-fluoro-2′,7-dimethyl-1H,2′H-[3,4′-biindazol]-1-yl)pyridin-2-yl)-3-azabicyclo[3.1.0]hexane-6-carboxylic acid] | 400 | 600 | 300 | 600 | 600 | 8 | 2.6 | 26 |
| Cc1c(F)ccc2c(-c3cccc4nn(C)cc34)nn(-c3ccc(N4C[C@@H]5[C@H](C4)[C@H]5C(=O)O)nc3)c12 [compound 6, (1R,5S,6r)-3-(5-(6-fluoro-2′,7-dimethyl-1H,2′H-[3,4′-biindazol]-1-yl)pyridin-2-yl)-3-azabicyclo[3.1.0]hexane-6-carboxylic acid] |  | 200 |  | 300 |  | 9 | 2.4 |  |
| Cc1c(F)ccc2c(-c3cccc4nn(C)cc34)nn(-c3ccc(N4CCC(C(=O)O)CC4)nc3)c12 [compound 7, 1-(5-(6-fluoro-2′,7-dimethyl-1H,2′H-[3,4′-biindazol]-1-yl)pyridin-2-yl)piperidine-4-carboxylic acid] |  | 200 |  | 800 |  | 13 | 1.8 |  |

Further lines, with some results ahead:

| EC50 (human STING variant AQ) [nM] | EC50 [2] [nM] | EC50 [3] [nM] | EC50 (human STING variant HAQ) [nM] | EC50 [4] [nM] | Papp A→B at 10 μM (in vitro) [×10⁻⁶ cm/s] | efflux ratio at 10 μM (in vitro) | Compound | TM (changes in TM, thermal shift) [1] [K] |
| --- | --- | --- | --- | --- | --- | --- | --- | --- |
|  |  |  | 700 |  | 10 | 1.5 | Cc1c(Cl)ccc2c(-c3cccc4nn(C)cc34)nn(-c3ccc(N4CCC(C(=O)O)CC4)nc3)c12 [compound 9, 1-(5-(6-chloro-2′,7-dimethyl-1H,2′H-[3,4′-biindazol]-1-yl)pyridin-2-yl)piperidine-4-carboxylic acid] |  |
| 5600 | 2200 | 2200 | 6600 | 7800 |  |  | Cc1cc(Cl)cc2c(-c3cccc4nn(C)cc34)nn(-c3ccc(N4CCC(C(=O)O)CC4)nc3)c12 [compound 10, 1-(5-(5-chloro-2′,7-dimethyl-1H,2′H-[3,4′-biindazol]-1-yl)pyridin-2-yl)piperidine-4-carboxylic acid] | 19 |
| 2400 | 800 | 900 | 3900 | 3000 |  |  | Cc1cc(Cl)cc2c(-c3cccc4nn(C)cc34)nn(-c3ccc(N4C[C@@H]5[C@H](C4)[C@H]5C(=O)O)nc3)c12 [compound 11, (1R,5S,6r)-3-(5-(5-chloro-2′,7-dimethyl-1H,2′H-[3,4′-biindazol]-1-yl)pyridin-2-yl)-3-azabicyclo[3.1.0]hexane-6-carboxylic acid] | 24 |
| 600 | 300 | 300 | 700 | 600 | 4 | 6.4 | Cc1c(Cl)c(F)cc2c(-c3cccc4nn(C)cc34)nn(-c3ccc(N4CCC(C(=O)O)CC4)nc3)c12 [compound 12, 1-(5-(6-chloro-5-fluoro-2′,7-dimethyl-1H,2′H-[3,4′-biindazol]-1-yl)pyridin-2-yl) piperidine-4-carboxylic acid] |  |
|  |  |  | 300 |  | 2 | 3.6 | Cc1c(Cl)c(F)cc2c(-c3cccc4nn(C)cc34)nn(-c3ccc(N4C[C@@H]5[C@H](C4)[C@H]5C(=O)O)nc3)c12 [compound 13, (1R,5S,6r)-3-(5-(6-chloro-5-fluoro-2′,7-dimethyl-1H,2′H-[3,4′-biindazol]-1-yl)pyridin-2-yl)-3-azabicyclo[3.1.0] hexane-6-carboxylic acid] |  |
